Test results: patent US20230075521A1, “RESVERATROL PHARMACEUTICAL COMPOSITIONS AND METHODS OF USE THEREOF” (priority 2021, published 2023)

Key:
[1] = tested on: AD-related gene expression; assay: RT-qPCR of brain regions, long-term treatment; assay type: in vivo, 3×Tg-AD mouse; conditions: 3×Tg-AD mice, 50 mg/kg, 9 months
Description: At study endpoints (age 15 months for sub-chronic study, age 13 months for long-term study), mice were anaesthetized with isoflurane and blood was collected by transcardial puncture. Blood was stored on ice and then centrifuged at 10,000×g at 4° C. for 10 min to collect serum and stored at −80° C. until use. The brain was then extracted and quickly dissected on ice to collect prefrontal cortex (PFC), hippocampus, entorhinal cortex (ERC), and cerebellum, which were immediately frozen in liquid nitrogen. The samples were stored at −80° C. until processed for RNA or protein extraction. For each mouse, brain regions from one hemisphere were used for RNA preparation and qPCR and sections from the other hemisphere were used for protein work including ELISAs.

[2] = Rat PK study, resveratrol in plasma at 30 min; assay type: in vivo; conditions: male, oral, 50 mg/kg, Sprague-Dawley rats, single dose, 30 min after treatment
Description: For mouse PK studies, male CD-1 mice (Charles River Canada) were used. Animals were food fasted for 4 h prior to dosing and water fasted 1 h prior to dosing. […] At each time point (15 min, 30 min, 1 h, 4 h) 3 mice of each group were terminally bled via cardiac puncture under red light. Blood was collected into sodium-EDTA tubes under red light and spun at […] for 10 min at 6800×g. Plasma was collected and split into amber tubes. Both left and right brain were collected and snap-frozen in liquid nitrogen and stored at […] Drug concentrations were analyzed by liquid chromatography-mass spectrometry (LC-MS/MS) by KDM Laboratories Inc. For rat PK studies, male Sprague-Dawley rats (Charles River Canada) were used. […] Blood was collected under red light from the trunk at 30 min into K3EDTA tubes and centrifuged immediately at 4° C. for 10 min at 6800×g, and plasma collected into amber tubes. Brains were collected and snap-frozen in liquid nitrogen and stored at […] Drug concentration was analyzed by LC-MS/MS.

3×Tg-AD mice = assay: Behavior battery, long-term prophylactic treatment; assay type: in vivo, mouse; conditions: 50 mg/kg oral, at 6 or 10 months of age
Description: For long-term prophylactic studies, a cohort of 30 mice was used (50% males and females). […] JOTROL™ and RSV were prepared under red light and administered using a red syringe and metal gavage to prevent light exposure. Mice were treated 5 days a week for 9 months beginning at 4 months of age (prior to disease development). As detailed below, a battery of behavioral tests was conducted, including Y-maze spontaneous alternation, open field, rotarod, novel object recognition, Barnes maze, and object location memory. A battery of behavior tests designed to test motor coordination skills, anxiety, spatial learning and reference memory was performed on all long-term-treated mice. Motor coordination was evaluated using rotarod. Anxiety was evaluated by open field and elevated 0-maze tests. […] Motor coordination was assessed by the latency to fall on the very first trial between treatment groups. Motor learning was measured both within and between sub-jects by comparing the first trial with subsequent trials and is evident as an increased latency to fall over time. […] Distance, velocity, and time in center versus periphery were recorded and analyzed. Anxiety-related behavior can be determined by the duration spent in the center of the field versus the periphery. […] Total arm entries and percent of spontaneous alternations were recorded. […]

Oc1ccc(/C=C/c2cc(O)cc(O)c2)cc1 [RSV, (trans-)resveratrol]
Adam10 expression in PFC, increase vs vehicle [1]: 20.44% | concentration at 30 min [2]: 180 ± 33.6 ng/mL | Y-maze spontaneous alternation performance (3×Tg-AD mice): No significant group differences
